Results from patent US9688651B2, “Geranyl geranyl acetone analogs and uses thereof” (NYKEN Holding B.V., priority 2012, dated 2017).

Experiments:
HSP70 [1] = assay: HSP70 mRNA (qPCR) in HL-1 cardiomyocytes after mild heat shock; format: cell-based, mouse; settings: then compound 10 μM for 6 hours
Description: (§1) HL-1 cardiomyocytes were subjected to a mild heat shock of 44° C. for 10 minutes. After a recovery of 10 minutes (37 degrees 5% CO2), compounds were added in a final concentration of 10 μM (dissolved in DMSO, final concentration 0.1%). To control myocytes, 0.1% DMSO was added. After six hours the cells were lysed in RIPA buffer and used for Western blotting as described previously.^3, 10 Compounds were also screened for their ability to upregulate HSP gene expression. Hereto, HL-1 cardiomyocytes were first subjected to a mild heat shock which activates the Heat Shock Factor. After the mild heat shock, compound (10 μM) was added to the medium of HL-1 cardiomyocytes for 6 hours, followed by determination of HSP70, HSP25, HSP90 and HSP40 which are targets of the heat shock factor 1 (HSF1) transcription factor. In addition, we determined mRNA levels of the gene encoding the glucose-responsive protein 78 (Grp78) which is HSF1-independent.

[2] = system: MCF-7 breast cancer cells; assay: MCF-7 cell death, ratio death/living cells (trypan blue); format: cell-based, human; parameters: key to Cell Death MCF-7 cancer cells Death/living 100 μM: 0 = no dead cells; + = P < 0.05; ++ = P < 0.01; +++ = P < 0.001; settings: 100 μM; 16-20 hours; trypan blue
PARP = PARP cleavage in MCF-7 cells (Western blot); format: cell-based, human; parameters: key to Cell Death MCF-7 cancer cells PARP: 0 = no dead cells; + = P < 0.05; ++ = P < 0.01; +++ = P < 0.001; settings: MCF-7 lysate, Western blot, 16-20 hours
Summary of the method: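 MCF-7 cells in DMEM/10% FCS exposed to 10 μM compound for 16-20 h; dead versus living cells counted by trypan blue. Lysates in RIPA analysed by Western blot for PARP (plus HSPs, GAPDH), ECL detection with densitometric quantification.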

HSP25 = HSP25 mRNA (qPCR) in HL-1 cardiomyocytes after mild heat shock; format: cell-based, mouse; settings: then compound 10 μM for 6 hours
Description: as §1

[3] = system: HSP70, HSP25, HSP90 and HSP40; assay: Upregulation of HSP gene expression (HSF1 targets) in HL-1 cardiomyocytes; format: cell-based, mouse; settings: HL-1, mild heat shock, 10 μM, 6 hours
Description: as §1

HSP70 [4] = assay: Hsp70 induction in murine proximal tubule (MPT) cells (Western blot); format: cell-based; settings: 40 μM, 5 hours, outperformed positive control GGA
Description: Murine proximal tubule (MPT) cells were isolated and cultured as described previously (Borkan et al. Heat stress ameliorates ATP depletion-induced sublethal injury in mouse proximal tubule cells. Am. J. Physiol. 1997; F347-55).
The MPT cells were exposed to 40 μM of compound for 5 hours, after which the cells were harvested in RIPA buffer followed by Western blotting.
For Western-blot analysis, equal amount of protein in SDS-PAGE sample buffer was separated on 10% PAA-SDS gels. After transfer to nitrocellulose membranes (Stratagene, USA), membranes were incubated with primary antibodies against HSP70 (Enzo C92F3A/StressGen SP810) or beta-actin (Sigma A541). Horseradish peroxidase-conjugated anti-mouse or anti-sheep (Jackson ImmunoRes) was used as secondary antibody. Signals were detected by the ECL-detection method (Amersham).

HSP90 = HSP90 mRNA (qPCR) in HL-1 cardiomyocytes after mild heat shock; format: cell-based, mouse; settings: then compound 10 μM for 6 hours
Description: as §1

HSP70 [5] = assay: HSP70 protein boosting in HL-1 cardiomyocytes after mild heat shock (Western blot); format: cell-based, mouse
Summary of the method: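 Mouse atrial HL-1 myocytes given mild heat shock (44° C., 10 min), recovered 10 min at 37° C., then exposed to compound at 10 μM final (0.1% DMSO) for 6 h. HSP70 in RIPA lysates measured by Western blot, ECL detection and densitometry.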

HSP27 = HSP27 Western blot in MCF-7 cells; format: cell-based, human; parameters: key: + = P < 0.05; ++ = P < 0.01; +++ = P < 0.001; settings: MCF-7 lysate, 16-20 hours
Summary of the method: (§2)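 MCF-7 cells in DMEM/10% FCS exposed to test compounds at final concentration 10 for 16-20 h; dead/living ratio by trypan blue. RIPA lysates, equal protein, run on 10% SDS gels and immunoblotted; ECL detection with densitometric quantification, GAPDH also probed.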

HSP70 [6] = assay: HSP70 Western blot in MCF-7 cells; format: cell-based, human; parameters: key: + = P < 0.05; ++ = P < 0.01; +++ = P < 0.001; settings: MCF-7 lysate, 16-20 hours
Summary of the method: as §2

[7] = system: glucose-responsive protein 78 (Grp78); assay: Grp78 mRNA (qPCR, HSF1-independent) in HL-1 cardiomyocytes; format: cell-based, mouse; parameters: key to HSP boosting HL-1 cardiomyocytes mRNA (qPCR) Grp78 Not HSF1: 0 = no induction HSP levels; + = 2-10-fold induction; ++ = 10-30-fold induction; +++ = > 30-fold induction
Description: as §1

HSP40 = HSP40 mRNA (qPCR) in HL-1 cardiomyocytes after mild heat shock; format: cell-based, mouse; settings: then compound 10 μM for 6 hours
Description: as §1

[8] = HL-1, mild heat shock, 10 μM, 6 hours

SMILES: CCOC(=O)C(C/C=C(\C)CCC=C(C)C)C(=O)c1ccccc1O (centres unmarked) [Compound 61, (E)-Ethyl 2-(2-hydroxybenzoyl)-5,9-dimethyldeca-4,8-dienoate]
- HSP boosting HL-1 cardiomyocytes mRNA (qPCR) HSP 70 (HSP70 [1]): + (+ = 2-10-fold induction)
- Cell Death MCF-7 cancer cells Death/living 100 μM [2]: 0
- Cell Death MCF-7 cancer cells PARP (PARP): 0
- HSP boosting HL-1 cardiomyocytes mRNA (qPCR) HSP 25 (HSP25): + (+ = 2-10-fold induction)
- induction of HSP gene expression [3]: strong inducers
- induction of HSP70 expression in renal (MPT) cells (HSP70 [4]): strong inducers
- HSP boosting HL-1 cardiomyocytes mRNA (qPCR) HSP 90 (HSP90): + (+ = 2-10-fold induction)
- induction of mammalian HSP70 protein expression (HSP70 [5]; [8]): potent inducers
- HSP boosting HL-1 cardiomyocytes Protein HSP70 (HSP70 [5]; mild heat shock 44°C 10 min, then compound 10 μM for 6 hours, Western blot): ++ (++ = 10-30-fold induction)
- Cell Death MCF-7 cancer cells HSP 27 (HSP27): 0
- Cell Death MCF-7 cancer cells HSP 70 (HSP70 [6]): 0
- upregulation of Grp78 mRNA [7, 8]: no upregulation
- HSP boosting HL-1 cardiomyocytes mRNA (qPCR) Grp78 Not HSF1 ([7]; mild heat shock, then compound 10 μM for 6 hours): 0
- HSP boosting HL-1 cardiomyocytes mRNA (qPCR) HSP 40 (HSP40): + (+ = 2-10-fold induction)
